Experimental data reported in the NIST ThermoML archive (doi:10.1016/j.jct.2016.08.006).
± gives the expanded uncertainty stated by the source.

How the values were obtained:
[1] = molar heat capacity at constant pressure; settings: 101.3 kPa, Liquid, Small sample (50 mg) DSC
[2] = molar heat capacity at constant pressure; xn = mol fraction of the nth substance listed; settings: 101.3 kPa, Liquid, Small sample (50 mg) DSC, x2 = 0

CNCCN(C)C [N,N,N'-trimethylethylenediamine]
[1]
Settings	molar heat capacity at constant pressure [J/K/mol]
303.2 K	258.3 ± 8.6
308.2 K	260 ± 8.6
313.2 K	262.7 ± 8.7
318.2 K	265.3 ± 8.8
323.2 K	269.2 ± 8.9
328.2 K	272.7 ± 9
333.2 K	276 ± 9.2
338.2 K	278.9 ± 9.3
343.2 K	281.3 ± 9.3
348.2 K	283.4 ± 9.4
353.2 K	286.6 ± 9.5

NCCN1CCNCC1 [N-(β-aminoethyl)piperazine)]
[1]
Settings	molar heat capacity at constant pressure [J/K/mol]
303.2 K	289.7 ± 9.6
308.2 K	290.8 ± 9.6
313.2 K	293.1 ± 9.7
318.2 K	294.7 ± 9.8
323.2 K	296.9 ± 9.8
328.2 K	298.5 ± 9.9
333.2 K	300.7 ± 10
338.2 K	302.2 ± 10
343.2 K	303.3 ± 10
348.2 K	303.6 ± 10
353.2 K	304.6 ± 10

Cc1ccccc1 [toluene]
[1]
Settings	molar heat capacity at constant pressure [J/K/mol]
303.2 K	159.1 ± 5.3
308.2 K	160.4 ± 5.3
313.2 K	161.6 ± 5.4
318.2 K	163 ± 5.4
323.2 K	164.1 ± 5.4
328.2 K	165.5 ± 5.5
333.2 K	167 ± 5.5
338.2 K	168.6 ± 5.6
343.2 K	170.4 ± 5.7
348.2 K	172.8 ± 5.7
353.2 K	175.1 ± 5.8

O [water]
[1]
Settings	molar heat capacity at constant pressure [J/K/mol]
303.2 K	75.26 ± 2.5
308.2 K	75.27 ± 2.5
313.2 K	75.29 ± 2.5
318.2 K	75.31 ± 2.5
323.2 K	75.29 ± 2.5
328.2 K	75.32 ± 2.5
333.2 K	75.41 ± 2.5
338.2 K	75.44 ± 2.5
343.2 K	75.48 ± 2.5
348.2 K	75.55 ± 2.5
353.2 K	75.78 ± 2.5

O [water] + CNCCN(C)C
[2]
Settings	molar heat capacity at constant pressure [J/K/mol]
303.2 K	75.26 ± 2.5
308.2 K	75.27 ± 2.5
313.2 K	75.29 ± 2.5
318.2 K	75.31 ± 2.5
323.2 K	75.29 ± 2.5
328.2 K	75.32 ± 2.5
333.2 K	75.41 ± 2.5
338.2 K	75.44 ± 2.5
343.2 K	75.48 ± 2.5
348.2 K	75.55 ± 2.5
353.2 K	75.78 ± 2.5

O [water] + NCCN1CCNCC1
[2]
Settings	molar heat capacity at constant pressure [J/K/mol]
303.2 K	75.26 ± 2.5
308.2 K	75.27 ± 2.5
313.2 K	75.29 ± 2.5
318.2 K	75.31 ± 2.5
323.2 K	75.29 ± 2.5
328.2 K	75.32 ± 2.5
333.2 K	75.41 ± 2.5
338.2 K	75.44 ± 2.5
343.2 K	75.48 ± 2.5
348.2 K	75.55 ± 2.5
353.2 K	75.78 ± 2.5
